Results from patent US8952024B2, “Herbicidal pyrimidone derivatives” (E I du Pont de Nemours and Company, priority 2009, dated 2015).

How the values were obtained:
Assay in all cases: Test B pre-/postemergence plant response
Format in all cases: in vivo
[1] = test system: Italian ryegrass (Lolium multiflorum); conditions: for Plant response rating, Ryegrass, Italian: Postemergence
How it was run: (§1)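 Compound in solvent + surfactant applied pre-em (loam/sand) or post-em (plants 2–18 cm, peat medium); greenhouse hold 13–15 days; visual 0–100 control score.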

[2] = test system: morningglory (Ipomoea coccinea); conditions: for Plant response rating, Morningglory: Postemergence
How it was run: as §1

[3] = test system: goosegrass (Eleusine indica); conditions: for Plant response rating, Goosegrass: Postemergence
How it was run: as §1

[4] = test system: corn (Zea mays); conditions: for Plant response rating, Corn: Postemergence
How it was run: as §1

[5] = test system: blackgrass (Alopecurus myosuroides); conditions: for Plant response rating, Blackgrass: Postemergence
How it was run: as §1

[6] = test system: soybean (Glycine max); conditions: for Plant response rating, Soybean: Postemergence
How it was run: as §1

[7] = test system: giant foxtail (Setaria faberii); conditions: for Plant response rating, Foxtail, Giant: Postemergence
How it was run: as §1

[8] = test system: cocklebur (Xanthium strumarium); conditions: for Plant response rating, Cocklebur: Postemergence
How it was run: as §1

[9] = test system: kochia (Kochia scoparia); conditions: for Plant response rating, Kochia: Postemergence
How it was run: as §1

[10] = test system: large crabgrass (Digitaria sanguinalis); conditions: for Plant response rating, Crabgrass, Large: Postemergence
How it was run: as §1

[11] = test system: ragweed (common ragweed, Ambrosia elatior); conditions: for Plant response rating, Ragweed: Postemergence
How it was run: as §1

[12] = test system: velvetleaf (Abutilon theophrasti); conditions: for Plant response rating, Velvetleaf: Postemergence
How it was run: as §1

[13] = test system: green foxtail (Setaria viridis); conditions: for Plant response rating, Foxtail, Green: Postemergence
How it was run: as §1

[14] = test system: johnsongrass (Sorghum halepense); conditions: for Plant response rating, Johnsongrass: Postemergence
How it was run: as §1

[15] = 62 g ai/ha, postemergence, 0 is no effect, 100 is complete control, 13 to 15 days
[16] = 31 g ai/ha, 0 to 100 scale (0 no effect, 100 complete control)
[17] = 125 g ai/ha, scale 0 to 100 (0 no effect, 100 complete control)
[18] = 250 g ai/ha, scale 0 to 100 (0 no effect, 100 complete control)

## COCCn1c(-c2cccc(F)c2)ncc(C(=O)C2=C(O)CCCC2=O)c1=O [Compound 123]
[1]; [15]
  Ryegrass, Italian plant response rating (0 to 100 scale): 5
[1]; [16]
  Plant response rating, Ryegrass, Italian: 0
[1]; [17]
  Plant response rating, Ryegrass, Italian: 5
[1]; [18]
  Plant response rating, Ryegrass, Italian: 50
[2]; [15]
  Morningglory plant response rating (0 to 100 scale): 98
[2]; [16]
  Plant response rating, Morningglory: 70
[2]; [17]
  Plant response rating, Morningglory: 100
[2]; [18]
  Plant response rating, Morningglory: 100
[3]; [15]
  Goosegrass plant response rating (0 to 100 scale): 65
[3]; [16]
  Plant response rating, Goosegrass: 65
[3]; [17]
  Plant response rating, Goosegrass: 80
[3]; [18]
  Plant response rating, Goosegrass: 85
[4]; [15]
  Corn plant response rating (0 to 100 scale): 70
[4]; [16]
  Plant response rating, Corn: 35
[4]; [17]
  Plant response rating, Corn: 75
[4]; [18]
  Plant response rating, Corn: 80
[5]; [15]
  Blackgrass plant response rating (0 to 100 scale): 20
[5]; [16]
  Plant response rating, Blackgrass: 20
[5]; [17]
  Plant response rating, Blackgrass: 40
[5]; [18]
  Plant response rating, Blackgrass: 80
[6]; [15]
  Soybean plant response rating (0 to 100 scale): 75
[6]; [16]
  Plant response rating, Soybean: 60
[6]; [17]
  Plant response rating, Soybean: 85
[6]; [18]
  Plant response rating, Soybean: 90
[7]; [15]
  Foxtail, Giant plant response rating (0 to 100 scale): 75
[7]; [16]
  Plant response rating, Foxtail, Giant: 65
[7]; [17]
  Plant response rating, Foxtail, Giant: 80
[7]; [18]
  Plant response rating, Foxtail, Giant: 85
[8]; [15]
  Cocklebur plant response rating (0 to 100 scale): 80
[8]; [16]
  Plant response rating, Cocklebur: 65
[8]; [17]
  Plant response rating, Cocklebur: 100
[8]; [18]
  Plant response rating, Cocklebur: 100
[9]; [15]
  Kochia plant response rating (0 to 100 scale): 65
[9]; [16]
  Plant response rating, Kochia: 60
[9]; [17]
  Plant response rating, Kochia: 80
[9]; [18]
  Plant response rating, Kochia: 100
[10]; [15]
  Crabgrass, Large plant response rating (0 to 100 scale): 80
[10]; [16]
  Plant response rating, Crabgrass, Large: 70
[10]; [17]
  Plant response rating, Crabgrass, Large: 85
[10]; [18]
  Plant response rating, Crabgrass, Large: 90
[11]; [15]
  Ragweed plant response rating (0 to 100 scale): 85
[11]; [16]
  Plant response rating, Ragweed: 70
[11]; [17]
  Plant response rating, Ragweed: 95
[11]; [18]
  Plant response rating, Ragweed: 98
[12]; [15]
  Velvetleaf plant response rating (0 to 100 scale): 90
[12]; [16]
  Plant response rating, Velvetleaf: 80
[12]; [17]
  Plant response rating, Velvetleaf: 95
[12]; [18]
  Plant response rating, Velvetleaf: 100
[13]; [15]
  Foxtail, Green plant response rating (0 to 100 scale): 60
[13]; [16]
  Plant response rating, Foxtail, Green: 50
[13]; [17]
  Plant response rating, Foxtail, Green: 85
[13]; [18]
  Plant response rating, Foxtail, Green: 90
[14]; [15]
  Johnsongrass plant response rating (0 to 100 scale): 65
[14]; [16]
  Plant response rating, Johnsongrass: 35
[14]; [17]
  Plant response rating, Johnsongrass: 75
[14]; [18]
  Plant response rating, Johnsongrass: 90
